# Laboratory results as given in ChEMBL document CHEMBL3751720, “Investigating molecular dynamics-guided lead optimization of EGFR inhibitors” (Bioorg Med Chem, 2016).
# Biological target: Epidermal growth factor receptor (Homo sapiens) (UniProt P00533)
# Test: Inhibition of wild-type EGFR (unknown origin) assessed as enzyme residual activity at 10 uM for 60 mins by microplate scintillation counter in presence of [gamma-33P]-ATP
# Epidermal growth factor receptor (Homo sapiens), sequence (P00533 whole entry): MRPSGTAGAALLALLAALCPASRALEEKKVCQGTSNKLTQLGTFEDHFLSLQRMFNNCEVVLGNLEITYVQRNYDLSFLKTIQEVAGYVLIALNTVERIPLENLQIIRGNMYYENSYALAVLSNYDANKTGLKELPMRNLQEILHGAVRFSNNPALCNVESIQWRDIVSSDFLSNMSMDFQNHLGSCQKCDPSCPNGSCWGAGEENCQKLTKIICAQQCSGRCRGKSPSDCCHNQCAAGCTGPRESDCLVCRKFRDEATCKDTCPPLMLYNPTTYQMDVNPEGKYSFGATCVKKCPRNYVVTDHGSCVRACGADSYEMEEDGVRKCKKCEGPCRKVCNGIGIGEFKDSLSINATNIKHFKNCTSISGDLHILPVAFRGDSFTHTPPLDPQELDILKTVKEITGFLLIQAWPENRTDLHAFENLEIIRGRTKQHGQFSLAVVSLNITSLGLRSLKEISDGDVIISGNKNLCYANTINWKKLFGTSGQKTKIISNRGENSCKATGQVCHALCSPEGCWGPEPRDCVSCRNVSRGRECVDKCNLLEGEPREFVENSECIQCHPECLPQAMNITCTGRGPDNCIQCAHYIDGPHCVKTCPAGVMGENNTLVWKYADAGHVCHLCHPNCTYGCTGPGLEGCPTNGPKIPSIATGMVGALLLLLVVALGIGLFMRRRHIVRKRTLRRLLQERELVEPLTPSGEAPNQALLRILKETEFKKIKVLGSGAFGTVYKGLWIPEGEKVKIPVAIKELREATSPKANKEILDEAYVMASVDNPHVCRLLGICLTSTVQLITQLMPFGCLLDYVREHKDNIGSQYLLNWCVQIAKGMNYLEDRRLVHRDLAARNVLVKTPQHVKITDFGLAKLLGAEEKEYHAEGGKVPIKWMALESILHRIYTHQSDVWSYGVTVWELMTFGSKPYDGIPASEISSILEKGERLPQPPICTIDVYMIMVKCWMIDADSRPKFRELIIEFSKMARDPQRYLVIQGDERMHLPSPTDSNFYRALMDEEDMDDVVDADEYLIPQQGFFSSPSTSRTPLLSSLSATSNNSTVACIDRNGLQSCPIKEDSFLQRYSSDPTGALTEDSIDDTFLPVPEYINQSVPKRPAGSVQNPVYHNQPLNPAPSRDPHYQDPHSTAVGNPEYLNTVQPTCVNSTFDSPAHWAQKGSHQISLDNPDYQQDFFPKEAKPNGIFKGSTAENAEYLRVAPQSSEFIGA
row,Compound,Activity [%]
1,Cn1c(=O)c(-c2c(F)cccc2C(F)(F)F)cc2c(N)nc(Nc3ccccc3)nc21,61
2,Cn1c(=O)c(-c2ccccc2)cc2c(N)nc(Nc3ccccc3)nc21,49
3,Cn1c(=O)c(-c2c(Br)cccc2Br)cc2c(N)nc(Nc3ccccc3)nc21,3
4,Cn1c(=O)c(-c2c(Cl)cccc2Cl)cc2c(N)nc(Nc3ccccc3)nc21,14
